Experimental data: PubChem BioAssay (NCI)
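How tested: cells in 96-well plates exposed to compound for 48 hours at five concentrations. GI50 is the concentration that inhibits growth by half. TGI marks complete inhibition of growth.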

How the values were obtained:
Test in all cases: inhibition of tumour cell growth, NCI panel, 48 h
ACHN renal = tested on: ACHN renal
RXF 393 renal = tested on: RXF 393 renal
TK-10 renal = tested on: TK-10 renal
M14 melanoma = tested on: M14 melanoma
SNB-19 CNS = tested on: SNB-19 CNS
CCRF-CEM leukemia = tested on: CCRF-CEM leukemia
HL-60(TB) leukemia = tested on: HL-60(TB) leukemia
MOLT-4 leukemia = tested on: MOLT-4 leukemia
SK-MEL-5 melanoma = tested on: SK-MEL-5 melanoma
PC-3 prostate = tested on: PC-3 prostate

Compound | TGI (ACHN renal) [µM] | TGI (RXF 393 renal) [µM] | TGI (TK-10 renal) [µM] | TGI (M14 melanoma) [µM] | TGI (SNB-19 CNS) [µM] | TGI (CCRF-CEM leukemia) [µM] | TGI (HL-60(TB) leukemia) [µM] | TGI (MOLT-4 leukemia) [µM] | TGI (SK-MEL-5 melanoma) [µM] | TGI (PC-3 prostate) [µM] | GI50 (ACHN renal) [µM] | GI50 (RXF 393 renal) [µM] | GI50 (TK-10 renal) [µM] | GI50 (M14 melanoma) [µM] | GI50 (SNB-19 CNS) [µM] | GI50 (CCRF-CEM leukemia) [µM] | GI50 (HL-60(TB) leukemia) [µM] | GI50 (MOLT-4 leukemia) [µM] | GI50 (SK-MEL-5 melanoma) [µM] | GI50 (PC-3 prostate) [µM]
Cc1cc(C)c2nc3c(c(C(O)C4CCCCN4)c2c1)CC/C3=C\c1ccc(Cl)cc1 (centres undefined) | > 100 | > 100 | > 100 | > 100 | > 100 | > 100 | 67.6 | > 100 | 92.2 | > 100 | – | – | – | – | – | – | – | – | – | –
COc1cccc(C2CC(=O)Nc3c2c(C)nn3-c2nc3ccccc3[nH]2)c1OC (centres undefined) | > 90.9 | 10.6 | > 100 | 30.3 | > 100 | > 100 | 13.8 | – | 5.74 | 60.5 | 3.98 | 2.91 | 6.8 | 4.45 | 4.07 | 1.86 | 2.97 | 0.0531 | 2.2 | 4.44
COc1cc2c(c(OC)c1OC)-c1cc(I)c(O)cc1[C@@H](NC(C)=O)CC2 | > 100 | > 100 | > 100 | 0.0969 | > 100 | > 100 | 0.069 | > 100 | 0.244 | > 100 | 0.383 | 0.0496 | > 44.6 | 0.0311 | 0.0679 | 0.0364 | 0.0254 | 0.0437 | 0.0358 | 0.0395
CCSC[C@@H]1C[C@](O)(c2ccccc2)[C@@H](c2ccccc2)O1 | > 100 | > 100 | > 100 | > 100 | > 100 | > 100 | > 50.7 | > 23.7 | > 100 | > 100 | > 88 | 76.2 | > 91.7 | > 90.1 | > 100 | > 71.5 | 9.84 | 7.18 | 44.4 | 56.7
Cc1cc(NC(=O)NCc2ccc(N3C(N)=NC(N)=NC3(C)C)cc2)ccc1S(=O)(=O)F | > 100 | > 100 | > 100 | > 100 | > 100 | > 100 | > 57.5 | > 100 | 58.7 | 31 | 46.2 | 51.2 | 5.5 | 1.51 | 11.7 | 0.815 | 0.716 | 2.01 | 1.11 | 0.0962
O=c1cc(-c2ccccc2)oc2ccc(Cl)cc12 | > 90.6 | > 91.2 | 92.7 | > 100 | > 81.7 | > 100 | > 46.4 | 98.7 | > 100 | > 80.3 | – | – | – | – | – | – | – | – | – | –
Nc1ncn([C@H]2CC(O)[C@@H](CO)S2)c(=O)n1 (some centres undefined) | > 100 | > 100 | > 100 | > 100 | > 100 | > 100 | > 100 | > 100 | > 100 | > 100 | 0.266 | 11.1 | 36.3 | 2.62 | 16.2 | 2.45 | 5.27 | 1.08 | 1.17 | 8.93
